From patent US20250242035A1, “GLYCAN CONJUGATE COMPOSITIONS AND METHODS” (GANNA BIO, INC., priority 2022, published 2025)

Key:
[1] = target: T1, DC-SIGNR (Homo sapiens, UniProt Q9H2X3); assay: In vitro glycan array protein binding, DC-SIGNR; conditions: 20 μg/mL protein, glycan printed at 100 μM
T1 construct: purchased R&D Systems 162-D2
T1 sequence (Q9H2X3 1-399): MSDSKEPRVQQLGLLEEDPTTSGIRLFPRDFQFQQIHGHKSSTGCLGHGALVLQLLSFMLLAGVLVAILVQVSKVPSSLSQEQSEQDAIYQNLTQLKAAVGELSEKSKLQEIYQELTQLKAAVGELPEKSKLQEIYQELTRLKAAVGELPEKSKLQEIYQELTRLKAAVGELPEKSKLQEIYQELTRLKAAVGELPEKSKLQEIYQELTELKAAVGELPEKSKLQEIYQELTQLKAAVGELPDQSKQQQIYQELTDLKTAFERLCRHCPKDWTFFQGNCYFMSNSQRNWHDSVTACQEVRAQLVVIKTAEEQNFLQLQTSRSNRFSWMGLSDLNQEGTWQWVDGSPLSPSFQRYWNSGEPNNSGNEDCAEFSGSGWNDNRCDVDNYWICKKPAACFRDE
Experimental: […]. Commercially available proteins tagged with human fragment crystallizable region (Fc) were used for the glycan array screening: DC-SIGNR (R&D Systems, 162-D2), Siglec7 (R&D Systems, 1138-SL), CD2 (R&D Systems, 1856-CD-050), CD83 (R&D Systems, 2044-CD), KLRF1 (R&D Systems, 1099-NK), CD28 (Sino Biological Inc., 11524-H41H).
Protein samples were prepared with 1% bovine serum albumin (BSA) in tris-sucrose-magnesium chloride (TSM) buffer with additional Ca^2+ (20 mM tris-HCl, 150 mM sodium chloride, 5 mM calcium chloride, 2 mM magnesium chloride, and 0.05% Tween 20). Proteins were incubated with the glycan array for 1 hour at room temperature at the concentrations indicated in Tables 9A-9F before being washed three times with wash buffer (20 mM tris-HCl, 150 mM sodium chloride, 5 mM calcium chloride, 2 mM magnesium chloride). The arrays were then contacted with Alexa Fluor 488-labeled goat anti-human IgG (H+L) (Invitrogen A-11013) at 5 μg/ml and measured by fluorescence detection. Values in Tables 9A-9F are reported in relative fluorescence units (RFUs).

[2] = tested on: FXII; assay: Knockdown measured using plasma FXII ELISA; assay type: in vivo, mice; conditions: 10-day post dose
Experimental: Glyco-siRNA conjugates were prepared as described in Examples 6 and 7, wherein the siRNA was an HPRT1-siRNA (SEQ ID NOS: 8 and 9).
Plasma from the 10-day post dose mice was collected using EDTA tube and saved at −80° C. before analysis. The plasma FXII levels were measured using Innov-Research FXII ELISA kit (Cat. No. IMSF12KT) following the provider's instructions.

[3] = tested on: Primary B cells; assay: In vitro glyco-siRNA internalization by stem loop qPCR, primary B cells; assay type: cell-based
Experimental: (§1) Primary B cells, T cells and NK cells were purchased from […] Technologies Inc. Primary B, T and NK cells were plated 24 hours before the experiment at 100,000 cells per well in […] of Roswell Park Memorial Institute (RPMI) medium with 10% fetal bovine serum (FBS) in 96-well plates. Glyco-siRNAs were incubated with cells for 4 hours. After incubation, media was removed and washed three times in PBS or PBS+150 mM NaCl. […] A final concentration of 1 mM dNTP, 5 U/μl transcriptase, 0.38 U/μl Rnase inhibitor, 50 nM stem loop RT primer (IDT) against siRNA targeting beta catenin (5′-[…]-3′ (SEQ ID NO: 21)) was mixed in a 10 μl volume reaction with 1× buffer. Frozen cell lysates were thawed and heated at 95° C. for 10 minutes and 5 μl of the boiled cell lysate was added to each 10 μl of reverse transcription mix. Samples were incubated first in 16° C. for 30 minutes then 42° C. for 30 minutes followed by 85° C. for 5 minutes and the samples were ready to be used for qPCR reaction. […] 1.5 ul of cDNA template from the reverse transcription reaction is added to the qPCR mix to a final volume for 10 μl. Samples were first incubated at 95° C. for 10 minutes followed by 40 cycles of 30 seconds of 95° C. and 1 minute at 60° C. Relative enrichment of siRNA over endogenous Micro-RNAs were calculated based on the Ct value of standard curve.

[4] = tested on: Primary T cells; assay: In vitro glyco-siRNA internalization by stem loop qPCR, primary T cells; assay type: cell-based
Experimental: as §1

[5] = tested on: Natural Killer (NK) cells; assay: In vitro glyco-siRNA internalization by stem loop qPCR, NK cells; assay type: cell-based
Experimental: as §1

[6] = target: T2, Siglec-7 (Homo sapiens, UniProt Q9Y286); assay: In vitro glycan array protein binding, Siglec-7; conditions: 10 μg/mL protein, glycan printed at 100 μM
T2 construct: purchased R&D Systems 1138-SL
T2 sequence (Q9Y286 19-467): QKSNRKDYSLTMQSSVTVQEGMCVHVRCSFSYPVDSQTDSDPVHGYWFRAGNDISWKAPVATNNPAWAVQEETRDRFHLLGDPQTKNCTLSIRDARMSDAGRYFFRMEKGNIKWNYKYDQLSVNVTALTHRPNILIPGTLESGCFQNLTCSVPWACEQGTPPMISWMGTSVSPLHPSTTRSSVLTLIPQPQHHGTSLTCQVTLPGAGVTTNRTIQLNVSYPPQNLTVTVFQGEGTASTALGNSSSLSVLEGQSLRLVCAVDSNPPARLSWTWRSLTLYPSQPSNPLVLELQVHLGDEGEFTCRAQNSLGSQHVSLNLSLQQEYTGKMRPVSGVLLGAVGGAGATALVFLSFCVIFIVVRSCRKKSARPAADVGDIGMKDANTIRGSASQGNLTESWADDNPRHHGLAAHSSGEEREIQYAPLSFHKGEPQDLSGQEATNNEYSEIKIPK

CC(=O)N[C@H]1[C@H](O[C@H]2[C@@H](O)[C@@H](CO)O[C@@H](O[C@H]3[C@H](O)[C@@H](O)C(O)O[C@@H]3CO)[C@@H]2O)O[C@H](CO)[C@@H](O)[C@@H]1O (stereo partly shown) [K-23, GlcNAcb1-3Galb1-4Glc]
Binding to DC-SIGNR (20 μg/ml)(RFU) [1]: 1047468 RFU

[N-]=[N+]=NCCO[C@@H]1O[C@H](CO)[C@@H](O)[C@H](O)[C@H]1O [X-2, 2-Azidoethyl β-D-glucopyranoside, reference compound]
Knockdown Relative to PBS Control Measured Using FXII ELISA, % of PBS Control ([2]; 0.1 mg/kg): 83.00 % of PBS Control | Knockdown Relative to PBS Control Measured Using FXII ELISA, % of PBS Control ([2]; 1 mg/kg): 77.24 % of PBS Control | Primary B Cell Uptake (Fold Increase vs Naked siRNA) ([3]; Donor 1, 4 hours incubation): 2.72 Fold | Primary B Cell Uptake (Fold Increase vs Naked siRNA) ([3]; Donor 2, 4 hours incubation): 2.17 Fold | Primary T Cell Uptake (Fold Increase vs Naked siRNA) ([4]; Donor 1, 4 hours incubation): 2.83 Fold | Primary T Cell Uptake (Fold Increase vs Naked siRNA) ([4]; Donor 2, 4 hours incubation): 1.68 Fold | NK Cell Uptake (Fold Increase vs Naked siRNA) ([5]; Donor 1 repeat 1, NK cells incubated with glyco-siRNA for 4 hours): 2.16 fold | NK Cell Uptake (Fold Increase vs Naked siRNA) ([5]; Donor 2 repeat 2, NK cells incubated with glyco-siRNA for 4 hours): 2.60 fold

CC(=O)N[C@H]1[C@H](O[C@H]2[C@@H](O)[C@@H](CO)O[C@@H](O[C@H]3[C@H](O)[C@@H](O)C(O)O[C@@H]3CO)[C@@H]2O)O[C@H](CO)[C@@H](O[C@@H]2O[C@H](CO)[C@H](O)[C@H](O)[C@H]2O)[C@@H]1O[C@@H]1O[C@@H](C)[C@@H](O)[C@@H](O)[C@@H]1O (stereo partly shown) [K-29, Galb1-4(Fucα1-3)GlcNAcb1-3Galb1-4Glc]
Binding to DC-SIGNR (20 μg/ml)(RFU) [1]: 718967.2 RFU

CC(=O)N[C@H]1[C@H](O[C@H]2[C@@H](O)[C@@H](CO)O[C@@H](O[C@H]3[C@H](O)[C@@H](O)C(O)O[C@@H]3CO)[C@@H]2O)O[C@H](CO)[C@@H](O[C@@H]2O[C@H](CO)[C@H](O)[C@H](O)[C@H]2O[C@@H]2O[C@@H](C)[C@@H](O)[C@@H](O)[C@@H]2O)[C@@H]1O (stereo partly shown) [K-30, Fuca1-2Galb1-4GlcNAcb1-3Galb1-4Glc]
Binding to DC-SIGNR (20 μg/ml)(RFU) [1]: 631597 RFU

CC(=O)N[C@H]1[C@H](O[C@H]2[C@@H](O)[C@@H](CO)O[C@@H](O[C@H]3[C@H](O)[C@@H](O)C(O)O[C@@H]3CO)[C@@H]2O)O[C@H](CO)[C@@H](O[C@@H]2O[C@H](CO)[C@H](O)[C@@H](O[C@@H]3O[C@H](CO)[C@@H](O)[C@H](O)[C@H]3NC(C)=O)[C@H]2O)[C@@H]1O (stereo partly shown) [K-28, GlcNAcb1-3Galb1-4GlcNAcb1-3Galb1-4Glc]
Binding to DC-SIGNR (20 μg/ml)(RFU) [1]: 723698.8 RFU

CC(=O)N[C@H]1[C@H](O[C@H]2[C@@H](O)[C@@H](CO)O[C@@H](O[C@H]3[C@H](O)[C@@H](O)C(O)O[C@@H]3CO)[C@@H]2O)O[C@H](CO)[C@@H](O[C@@H]2O[C@H](CO)[C@H](O)[C@H](O[C@H]3O[C@H](CO)[C@H](O)[C@H](O)[C@H]3O)[C@H]2O)[C@@H]1O[C@@H]1O[C@@H](C)[C@@H](O)[C@@H](O)[C@@H]1O (stereo partly shown) [K-31, Gala1-3Galb1-4(Fuca1-3)GlcNAcb1-3Galb1-4Glc]
Binding to DC-SIGNR (20 μg/ml)(RFU) [1]: 543554.7 RFU

CC(=O)N[C@H]1[C@H]([C@H](O)[C@H](O)CO)O[C@@](O[C@H](CO)[C@@H](O)[C@@H]2O[C@@](O[C@H]3[C@@H](O)[C@@H](CO)O[C@@H](O[C@H]4[C@H](O)[C@@H](O)C(O)O[C@@H]4CO)[C@@H]3O)(C(=O)O)C[C@H](O)[C@H]2NC(C)=O)(C(=O)O)C[C@@H]1O (stereo partly shown) [K-51, Neu5Ac(a2-8)Neu5Ac(a2-3)Gal(b1-4)Glc]
Binding to Siglec-7 (10 μg/ml)(RFU) [6]: 28368.5 RFU

CC(=O)NC1C(OC2C(O)C(CO)OC(OC3C(CO)OC(O)C(O)C3O)C2O)OC(CO)C(OC2OC(CO)C(O)C(OC3OC(CO)C(OC4OC(CO)C(O)C(O)C4OC4OC(C)C(O)C(O)C4O)C(O)C3NC(C)=O)C2O)C1O (stereo not shown) [K-22, Fucα1-2Galb1-4GlcNAcb1-3Galb1-4GlcNAcb1-3Galb1-4Glc]
Binding to DC-SIGNR (20 μg/ml)(RFU) [1]: 1047827 RFU

CC(=O)NC1C(OCC2OC(OC3C(CO)OC(O)C(O)C3O)C(O)C(OC3OC(CO)C(O)C(O)C3NC(C)=O)C2O)OC(CO)C(O)C1O (stereo not shown) [K-27, GlcNAcb1-3(GlcNAcb1-6)Galb1-4Glc]
Binding to DC-SIGNR (20 μg/ml)(RFU) [1]: 862190.8 RFU
